From patent US20260306680A1, “RADIOLABELED COMPOUNDS TARGETING THE PROSTATE-SPECIFIC MEMBRANE ANTIGEN” (PROVINCIAL HEALTH SERVICES AUTHORITY, priority 2022, published 2026)
Read-outs that look alike come from different tables or passages of the source.

Columns and labels:
[1] = Ex vivo biodistribution in mice bearing LNCaP tumor xenografts; parameters: species or system mouse (male NOD-scid IL2Rg^null (NSG)); settings: mouse, iv, mean ± SD
Description: (§1) All imaging and biodistribution studies used male NOD-scid IL2Rg^null (NSG) mice and conducted according to the guidelines established by the Canadian Council on Animal Care and approved by Animal Ethics Committee of the University of British Columbia. For tumor inoculations, mice were anesthetized via inhalation of 2% isoflurane in oxygen and implanted subcutaneously with 5×10^6 LNCaP cells below the left shoulder. Imaging and biodistribution studies were performed only after tumors grew to 5-8 mm in diameter.
(§2) For PET/CT imaging studies, approximately 5 MBq of the ^18F-labeled tracer was injected through the tail vein. While for ex vivo biodistribution studies, mice were injected with around 2 MBq of the ^18F-labeled tracer through the tail vein. Mice were allowed to recover and roam freely in the cages after injecting the tracer. At 45 min post-injection, imaging mouse were sedated again and positioned on the scanner. A 10 min CT scan was conducted first to allow for localization and attenuation correction for later reconstruction of PET images. A 10 min PET image was acquired following CT scan. Heating pads were used during the entire procedure to keep the mice warm and circulate the blood. At 1 h post-injection, all mice for biodistribution study were euthanized with blood drawn from heart, and all tissues of interest were collected, rinsed with PBS, blotted dry, weighed, and counted using an automated gamma counter. The uptake in each organ/tissue was normalized to the injected dose and expressed as the percentage of the injected dose per gram of tissue (% ID/g).
(§3) Representative maximum intensity projection PET images of ^18F-KLF1007-pyridine-BF3 and ^18F-KL01040 acquired at 1 h post-injection from LNCaP tumor-bearing mice is enumerated in Table 4 and shown in FIG. 1. Representative maximum intensity projection PET images of ^18F-KL01120 and ^18F-KL01130 acquired at 1 h post-injection from LNCaP tumor-bearing mice is also enumerated in Table 5 and shown in FIG. 2 (^18F-KL1120) and enumerated in Table 6 and shown in FIG. 3 (^18F-KL01130).

LNCaP tumor xenografts = experiment: as above; parameters: species or system mouse (male NOD-scid IL2Rg^null (NSG)); settings: mean ± SD
Description: as §1, §2, §3

[2] = adrenal glands, 1 h post-injection, read-out: Adrenal Glands uptake
[3] = blood, 1 h post-injection, read-out: Blood uptake
[4] = bone, 1 h post-injection, read-out: Bone uptake
[5] = brain, 1 h post-injection, read-out: Brain uptake
[6] = fat, 1 h post-injection, read-out: Fat uptake
[7] = heart, 1 h post-injection, read-out: Heart uptake
[8] = kidneys, 1 h post-injection, read-out: Kidneys uptake
[9] = lacrimal glands, 1 h post-injection, read-out: Lacrimal Glands uptake
[10] = liver, 1 h post-injection, read-out: Liver uptake
[11] = lncap tumor, 1 h post-injection, read-out: LNCaP Tumor uptake
[12] = lungs, 1 h post-injection, read-out: Lungs uptake
[13] = muscle, 1 h post-injection, read-out: Muscle uptake
[14] = pancreas, 1 h post-injection, read-out: Pancreas uptake
[15] = salivary glands, 1 h post-injection, read-out: Salivary Glands uptake
[16] = seminal glands, 1 h post-injection, read-out: Seminal Glands uptake
[17] = small intestine, 1 h post-injection, read-out: Small Intestine uptake
[18] = spleen, 1 h post-injection, read-out: Spleen uptake
[19] = stomach, 1 h post-injection, read-out: Stomach uptake
[20] = testes, 1 h post-injection, read-out: Testes uptake
[21] = thyroid, 1 h post-injection, read-out: Thyroid uptake
[22] = 1 h Blocked (co-injection of 2-PMPA, 0.5 mg)

## O=C(O)CCC[C@H](NC(=O)N[C@@H](CCCCNC(=O)[C@H](Cc1c2ccccc2cc2ccccc12)NC(=O)[C@H]1CC[C@H](CNC(=O)[C@H](CCCCNC(=O)c2ccc(F)nc2)NC(=O)CN(CC(=O)O)CC(=O)O)CC1)C(=O)O)C(=O)O [^18F-KL01040]
[1]; [2]
  tissue uptake at 1 h: 1.05 ± 0.26 %ID/g
[1]; [3]
  tissue uptake at 1 h: 1.96 ± 0.37 %ID/g
[1]; [4]
  tissue uptake at 1 h: 0.6 ± 0.18 %ID/g
[1]; [5]
  tissue uptake at 1 h: 0.11 ± 0.08 %ID/g
[1]; [6]
  tissue uptake at 1 h: 0.61 ± 0.15 %ID/g
[1]; [7]
  tissue uptake at 1 h: 0.56 ± 0.14 %ID/g
[1]; [8]
  tissue uptake at 1 h: 33.2 ± 10.1 %ID/g
[1]; [9]
  tissue uptake at 1 h: 0.23 ± 0.06 %ID/g
[1]; [10]
  tissue uptake at 1 h: 0.58 ± 0.15 %ID/g
[1]; [11]
  tissue uptake at 1 h: 11.2 ± 2.06 %ID/g
[1]; [12]
  tissue uptake at 1 h: 1.56 ± 0.4 %ID/g
[1]; [13]
  tissue uptake at 1 h: 0.29 ± 0.06 %ID/g
[1]; [14]
  tissue uptake at 1 h: 0.38 ± 0.05 %ID/g
[1]; [15]
  tissue uptake at 1 h: 0.79 ± 0.11 %ID/g
[1]; [16]
  tissue uptake at 1 h: 0.26 ± 0.06 %ID/g
[1]; [17]
  tissue uptake at 1 h: 2.54 ± 0.5 %ID/g
[1]; [18]
  tissue uptake at 1 h: 0.83 ± 0.41 %ID/g
[1]; [19]
  tissue uptake at 1 h: 0.2 ± 0.07 %ID/g
[1]; tail, 1 h post-injection, read-out: Tail uptake
  tissue uptake at 1 h: 1.31 ± 0.41 %ID/g
[1]; [20]
  tissue uptake at 1 h: 0.47 ± 0.07 %ID/g
[1]; [21]
  tissue uptake at 1 h: 0.6 ± 0.06 %ID/g

## O=C(O)CCC[C@H](NC(=O)N[C@@H](CCCCNC(=O)[C@H](Cc1c2ccccc2cc2ccccc12)NC(=O)[C@H]1CC[C@H](CNC(=O)CNC(=O)[C@H](CCCCNC(=O)c2ccc(F)nc2)NC(=O)CN(CC(=O)O)CC(=O)O)CC1)C(=O)O)C(=O)O [^18F-KL01130]
[1]; adrenal glands, 1 h Blocked (co-injection of 2-PMPA, 0.5 mg), read-out: Adrenal Glands uptake
  tissue uptake at 1 h: 0.39 ± 0.17 %ID/g
[1]; [2]
  tissue uptake at 1 h: 0.59 ± 0.06 %ID/g
[1]; blood, 1 h Blocked (co-injection of 2-PMPA, 0.5 mg), read-out: Blood uptake
  tissue uptake at 1 h: 1.78 ± 0.12 %ID/g
[1]; [3]
  tissue uptake at 1 h: 1.2 ± 0.26 %ID/g
[1]; bone, 1 h Blocked (co-injection of 2-PMPA, 0.5 mg), read-out: Bone uptake
  tissue uptake at 1 h: 0.57 ± 0.16 %ID/g
[1]; [4]
  tissue uptake at 1 h: 0.52 ± 0.17 %ID/g
[1]; brain, 1 h Blocked (co-injection of 2-PMPA, 0.5 mg), read-out: Brain uptake
  tissue uptake at 1 h: 0.04 %ID/g
[1]; [5]
  tissue uptake at 1 h: 0.04 ± 0.01 %ID/g
[1]; fat, 1 h Blocked (co-injection of 2-PMPA, 0.5 mg), read-out: Fat uptake
  tissue uptake at 1 h: 0.33 ± 0.1 %ID/g
[1]; [6]
  tissue uptake at 1 h: 0.22 ± 0.09 %ID/g
[1]; heart, 1 h Blocked (co-injection of 2-PMPA, 0.5 mg), read-out: Heart uptake
  tissue uptake at 1 h: 0.45 ± 0.05 %ID/g
[1]; [7]
  tissue uptake at 1 h: 0.34 ± 0.07 %ID/g
[1]; kidneys, 1 h Blocked (co-injection of 2-PMPA, 0.5 mg), read-out: Kidneys uptake
  tissue uptake at 1 h: 4.77 ± 0.3 %ID/g
[1]; [8]
  tissue uptake at 1 h: 19 ± 5.04 %ID/g
[1]; lacrimal glands, 1 h Blocked (co-injection of 2-PMPA, 0.5 mg), read-out: Lacrimal Glands uptake
  tissue uptake at 1 h: 0.04 ± 0.02 %ID/g
[1]; [9]
  tissue uptake at 1 h: 0.1 ± 0.06 %ID/g
[1]; large intestine, 1 h Blocked (co-injection of 2-PMPA, 0.5 mg), read-out: Large Intestine uptake
  tissue uptake at 1 h: 0.26 ± 0.1 %ID/g
[1]; large intestine, 1 h post-injection, read-out: Large Intestine uptake
  tissue uptake at 1 h: 0.2 ± 0.1 %ID/g
[1]; liver, 1 h Blocked (co-injection of 2-PMPA, 0.5 mg), read-out: Liver uptake
  tissue uptake at 1 h: 0.67 ± 0.07 %ID/g
[1]; [10]
  tissue uptake at 1 h: 0.47 ± 0.06 %ID/g
[1]; lncap tumor, 1 h Blocked (co-injection of 2-PMPA, 0.5 mg), read-out: LNCaP Tumor uptake
  tissue uptake at 1 h: 2.11 ± 0.02 %ID/g
[1]; [11]
  tissue uptake at 1 h: 8.01 ± 0.9 %ID/g
[1]; lungs, 1 h Blocked (co-injection of 2-PMPA, 0.5 mg), read-out: Lungs uptake
  tissue uptake at 1 h: 1.22 ± 0.17 %ID/g
[1]; [12]
  tissue uptake at 1 h: 0.96 ± 0.19 %ID/g
[1]; muscle, 1 h Blocked (co-injection of 2-PMPA, 0.5 mg), read-out: Muscle uptake
  tissue uptake at 1 h: 0.2 ± 0.02 %ID/g
[1]; [13]
  tissue uptake at 1 h: 0.34 ± 0.24 %ID/g
[1]; pancreas, 1 h Blocked (co-injection of 2-PMPA, 0.5 mg), read-out: Pancreas uptake
  tissue uptake at 1 h: 0.32 ± 0.04 %ID/g
[1]; [14]
  tissue uptake at 1 h: 0.21 ± 0.05 %ID/g
[1]; salivary glands, 1 h Blocked (co-injection of 2-PMPA, 0.5 mg), read-out: Salivary Glands uptake
  tissue uptake at 1 h: 0.49 ± 0.14 %ID/g
[1]; [15]
  tissue uptake at 1 h: 0.52 ± 0.18 %ID/g
[1]; seminal gland, 1 h Blocked (co-injection of 2-PMPA, 0.5 mg), read-out: Seminal Gland uptake
  tissue uptake at 1 h: 0.22 ± 0.06 %ID/g
[1]; [16]
  tissue uptake at 1 h: 0.15 ± 0.04 %ID/g
[1]; small intestine, 1 h Blocked (co-injection of 2-PMPA, 0.5 mg), read-out: Small Intestine uptake
  tissue uptake at 1 h: 2.4 ± 0.36 %ID/g
[1]; [17]
  tissue uptake at 1 h: 2.01 ± 0.6 %ID/g
[1]; spleen, 1 h Blocked (co-injection of 2-PMPA, 0.5 mg), read-out: Spleen uptake
  tissue uptake at 1 h: 0.31 ± 0.06 %ID/g
[1]; [18]
  tissue uptake at 1 h: 0.36 ± 0.09 %ID/g
[1]; stomach, 1 h Blocked (co-injection of 2-PMPA, 0.5 mg), read-out: Stomach uptake
  tissue uptake at 1 h: 0.36 ± 0.15 %ID/g
[1]; [19]
  tissue uptake at 1 h: 0.19 ± 0.11 %ID/g
[1]; testes, 1 h Blocked (co-injection of 2-PMPA, 0.5 mg), read-out: Testes uptake
  tissue uptake at 1 h: 0.41 ± 0.05 %ID/g
[1]; [20]
  tissue uptake at 1 h: 0.29 ± 0.05 %ID/g
[1]; thyroid, 1 h Blocked (co-injection of 2-PMPA, 0.5 mg), read-out: Thyroid uptake
  tissue uptake at 1 h: 0.48 ± 0.03 %ID/g
[1]; [21]
  tissue uptake at 1 h: 0.38 ± 0.16 %ID/g
LNCaP tumor xenografts; [22]
  Tumor:Muscle uptake ratio: 10.4 ± 1.31
  Tumour:Blood uptake ratio: 1.19 ± 0.12
  Tumour:Bone uptake ratio: 3.89 ± 1.05
  Tumour:Kidney uptake ratio: 0.44 ± 0.05
LNCaP tumor xenografts; 1 h post-injection
  Tumor:Muscle uptake ratio: 35.7 ± 5.75
  Tumour:Blood uptake ratio: 6.93 ± 1.54
  Tumour:Bone uptake ratio: 14.6 ± 4.27
  Tumour:Kidney uptake ratio: 0.59 ± 0.35
